Measured values from patent publication US20160375155A1, “Collagen Imaging Compositions” (Collagen Medical, LLC, priority 2015, published 2016).
Like-named read-outs stand apart in the source and are kept apart here.

Legend:
[1] = test system: hypoperfused vs normally perfused myocardium; type: in vivo, canine
Description: To mimic severe ischemia, a canine model was used in which an inflatable variable vascular occluder was placed around the left anterior descending coronary artery (LAD) to allow occlusion and reperfusion. Imaging was performed on a 3 T clinical scanner 4 days after implantation of the occluder. The conventional saturation recovery pulse sequence for stress perfusion imaging was compared with a segmented inversion method. The purpose of the segmented inversion method was to leverage the steady-state properties of Compound ID No. 1. This segmented inversion recovery pulse sequence provides greater T1 weighting, higher spatial resolution, and greater myocardial tissue contrast. Additionally, since imaging is delayed, the entire heart can be imaged. After baseline MRI scanning, the balloon was inflated. Compound ID No. 1 was administered as an i.v. bolus at a dose of 7.5 μmol/kg one minute after coronary artery occlusion. The occlusion was maintained for an additional 4 minutes, after which blood flow was restored. Imaging was performed prior to occlusion release and at multiple time points following reperfusion (up to 120 minutes after reperfusion, see FIG. 20)
To assess relative perfusion, labeled microspheres were administered at 3 timepoints in the study. La-labeled microspheres were given before coronary artery occlusion, Au-labeled microspheres were given during coronary artery occlusion, and Lu-labeled microspheres were given after reperfusion. In addition, prior to euthanasia, the variable occluder was re-inflated and fluorescent microspheres were administered in combination with KCl to arrest the heart and visually delineate the area of hypo-perfusion. The animal was sacrificed at ca. 120 minutes post Compound ID No. 1 and the heart removed and sectioned according to American Heart Association guidelines (M D Cerqueira et al, Circulation, 2002, 105:539-42). At autopsy under ultraviolet light, the hypo-perfused myocardium was differentiated from normal myocardium due to the lack of fluorescence in the hypo-perfused tissue. Based on the fluorescence, a sample of the ischemic territory and a sample of the remote myocardium were taken for ex vivo analysis. These tissue samples were weighed, digested in nitric acid, and analyzed for the elements La, Au, Lu (the three microsphere injections) and gadolinium (Compound ID No. 1) using ICP-MS. Concentrations in the ischemic tissue were compared to that of the remote myocardium to assess regional flow and probe uptake.
Data were quantitatively evaluated at pre-contrast, at 6 minutes post-contrast, and 15 minutes post-contrast using signal-to-noise ratios (SNR) for normally perfused myocardium, SNR for hypo-perfused myocardium, and contrast to noise ratio (CNR) for normal-to-hypoperfused myocardium, Tables 8-10 and FIG. 23. […]

[2] = test system: acute and chronic myocardial infarct (fibrosis); type: in vivo, canine; details: for CNR between infarct and blood: Compound ID No. 1 0.0075 mmol/kg, extracellular gadolinium 0.2 mmol/kg
Source text: An experimental protocol was developed to test the ability of Compound ID No. 1 to differentiate acute from chronic myocardial infarction in an in-vivo large animal (canine) model. In this model, early following acute myocardial infarction, pathologic fibrosis has not fully developed within the infarct zone (fibrosis-poor), whereas in chronic MI (˜8 weeks following MI), dense fibrosis fully replaced necrotic myocardium (fibrosis-rich).
In the myocardial fibrosis canine model, a vascular occluder was placed surgically around the left anterior descending coronary artery (LAD) to allow occlusion and reperfusion. Two animals were studied following acute MI and two additional animals were studied both following acute MI, and chronically at 8 weeks. The LAD vessel was completely occluded for 70-90 minutes and then released to allow reperfusion. The chest was sutured closed, and the animal was allowed to recover. Imaging was performed on a 3 T clinical scanner in an acute (<1 week, minimal fibrosis expected in acute necrosis) and chronic (8 weeks, healing complete, necrotic myocardium replaced by dense collagenous scar) time point after infarction. For each time point, the animals undergo 2 scans separated by 48 hours with conventional gadolinium contrast (0.2 mmol/kg GdDTPA) and Compound ID No. 1 (0.0075 mmol/kg).
Imaging was performed on a 3 T clinical scanner (Siemens Verio). Breath holding was achieved by temporarily turning off the animal ventilator, and all images were ECG gated. Standard short and long axis cine imaging was performed throughout the left ventricle to identify left ventricular function and regional wall motion abnormalities. Delayed enhancement imaging (segmented 2D inversion recovery gradient echo) was performed prior to and serially following Compound ID No. 1 administration. Two strategies were employed: (1) a fixed inversion time was chosen to null pre-contrast myocardium (TI˜650 ms), and (2) a variable inversion time set to null post-contrast myocardium as is performed in traditional delayed enhancement imaging.
After imaging, animals were euthanized and post mortem analysis of myocardium was performed. Tissue was assessed grossly by histopathologic staining with triphenyltetrazolium chloride for myocardial infarction, and microscopically with Masson's trichrome staining for fibrosis. Additionally quantitative tissue analysis for hydroxyproline was used to measure total collagen content in tissue and compared to tissue gadolinium concentration by inductively coupled plasma-mass spectrometry. MR data was analyzed quantitatively for conspicuity of infarction and image quality as well as contrast to noise ratio (CNR) for infarct-normal myocardium and infarct-blood.

In the case of CC(C)C[C@H](NC(=O)[C@@H]1CSSC[C@H](NC(=O)[C@H](Cc2c[nH]cn2)NC(=O)[C@H](Cc2c[nH]c3ccccc23)NC(=O)[C@H](CCCCNC(=O)CC[C@H](C(=O)O)N2CCN(CC(=O)O)CCN(CC(=O)O)CCN(CC(=O)O)CC2)NC(=O)CNC(=O)CC[C@H](C(=O)O)N2CCN(CC(=O)O)CCN(CC(=O)O)CCN(CC(=O)O)CC2)C(=O)N[C@@H]([C@@H](C)O)C(=O)N[C@@H]([C@@H](C)O)C(=O)N[C@@H](CCCCNC(=O)CC[C@H](C(=O)O)N2CCN(CC(=O)O)CCN(CC(=O)O)CCN(CC(=O)O)CC2)C(=O)N[C@@H](Cc2ccccc2)C(=O)N2CCC[C@H]2C(=O)N[C@@H](Cc2c[nH]cn2)C(=O)N[C@@H](Cc2c[nH]cn2)C(=O)N[C@@H](Cc2ccc(O)cc2)C(=O)N1)C(=O)N[C@@H](Cc1ccc(O)cc1)C(=O)N[C@@H](Cc1ccc(-c2ccccc2)cc1)C(N)=O [Compound ID No. 1], the “ΔCNR relative to EP-3600 study” value ([1]; 7.5 μmol/kg vs 12.3 μmol/kg EP-3600 (pig, literature)) is reported as 3 to 4 fold, the “visualization of myocardial perfusion defect” value ([1]; MRI after 7.5 μmol/kg) is reported as “readily visualized” and the “change in SNR of hypoperfused myocardium vs pre-contrast” value ([1]; post injection) is reported as “not significantly higher compared to the pre-contrast image”. For the same molecule, the “change in SNR of normally perfused myocardium vs pre-contrast” value ([1]; post injection, persists at 15 min, P<0.01) was “strong and significant increase in SNR”, the “CNR between infarct and blood” value ([2]; acute MI) was 19±7.4 and the “T1 of infarct vs normal myocardium” value ([2]; acute myocardial infarction, FIG. 24a) was “longer than normal (N1) myocardium”. For the same molecule, the “MR image enhancement of infarct over time” value ([2]; acute myocardial infarction, FIG. 25a) was “lack of contrast early, equilibration with normal myocardium at 30 minutes, and enhancement >1 hr”, the “relationship of compound concentration (gadolinium) vs. collagen concentration (hydroxyproline)” value ([2]; canine heart tissue, FIG. 26) was “linear relationship” and the “CNR between infarct and blood” value ([2]; chronic MI (8 weeks)) was 11±2. The “extent of the enhanced area” value ([2]; chronic infarct, compared with Gd delayed enhancement) was “matched that of Gd delayed enhancement”, the “T1 of infarct vs normal myocardium” value ([2]; chronic myocardial infarction, FIG. 24b) was “lower T1 than normal myocardium throughout the entire experiment” and the “T1 of infarct vs normal myocardium” value ([2]; chronic myocardial infarction, FIG. 24b, listed as Compound ID. No. 1) was “early and persistent lowering of T1 values”.
